# Source: patent publication US7553864B2, “Compounds for the treatment of inflammatory disorders and microbial diseases” (Schering Corporation, priority 2005, dated 2009)
# System: LpxC enzyme
# Assay: LpxC enzyme assay (RapidFire high-throughput mass spectrometry)
# Format: biochemical
# Details: concentration 0.10 (unit not given)
# Method: The standard LpxC assay consists of 0.2 nM LpxC enzyme, 1.0 μM UDP-3-O—(R-3-hydroxymyristoyl)-N-acetylglucosamine, and test compound, in assay buffer and 2% DMSO. Assay buffer is comprised of 25 mM HEPES, pH 7.3, 150 mM NaCl, 2.0 mM DTT, and 0.01% BSA. The enzyme reaction is carried out in a 96-well assay plate, in a final volume of 102 μL. Solutions of test compounds are prepared in 100% DMSO. Reaction additions, in order, are (1) 2.0 μL compound solution, (2) 80 μL of assay buffer, (3) 10 μL of 10 μM UDP-3-O—(R-3-hydroxymyristoyl)-N-acetylglucosamine (in assay buffer) and, (4) 10 μL of LpxC enzyme (20 nM in assay buffer) to initiate the reaction. In positive control reactions, addition (1) has 2.0 μL of 100% DMSO (without compound); these reactions are used as the total signal (TSB) value. Reactions are incubated at room temperature for 60 minutes when 10 μL of 1 N HCl is added to stop the reaction. The plate is shaken by hand for 10 seconds to ensure complete quenching. Assay plates are sealed with foil tape, and stored at −80° C. for 24-48 hr prior to analysis.
# The concentrations of substrate and product in the reaction mixtures are determined with BioTrove's proprietary RapidFire™ high-throughput mass spectrometry (HTMS). Assay mixtures are partially purified with reverse phase chromatography, where they are washed with water containing 5 mM ammonium formate and eluted onto the mass spectrometer in 80% acetonitrile, 20% water, and 5 mM ammonium formate. The mass spectrometry peak areas of the substrate and product are measured to determine the concentration of these analytes. The assay signal is the percentage of substrate that is converted to product. Percent inhibition, % I, in test samples is determined from the following equation: […]
row,Structure (SMILES),LpxC enzyme assay rating (% inhibition at indicated concentrations)
1,CNC(=O)[C@H](O)[C@@H](O)C(=O)Nc1ccc(C#Cc2ccccc2)cc1 [Compound 25],C (less than 10% inhibition)
2,CNC(=O)[C@H](O)[C@@H](O)C(=O)n1ccc2cc(C#Cc3ccccc3)ccc21 [Compound 26],C (less than 10% inhibition)
3,CNC(=O)[C@H](O)[C@@H](O)C(=O)Nc1ccc(-c2ccccc2)cc1 [Compound 27],C (less than 10% inhibition)
4,CNC(=O)[C@H](O)[C@@H](O)C(=O)Nc1ccc(-c2ccc(C(F)(F)F)cc2)cc1 [Compound 28],C (less than 10% inhibition)
5,CNC(=O)[C@H](O)[C@@H](O)C(=O)N1CCN(c2cccc3ccccc23)CC1 [Compound 29],C (less than 10% inhibition)

# Same assay, conditions: concentration 0.20 (unit not given)
row,Structure (SMILES),LpxC enzyme assay rating (% inhibition at indicated concentrations)
1,CNC(=O)[C@H](O)[C@@H](O)C(=O)Nc1ccc(C#Cc2ccccc2)cc1 [Compound 25],C (less than 10% inhibition)
2,CNC(=O)[C@H](O)[C@@H](O)C(=O)n1ccc2cc(C#Cc3ccccc3)ccc21 [Compound 26],C (less than 10% inhibition)
3,CNC(=O)[C@H](O)[C@@H](O)C(=O)Nc1ccc(-c2ccccc2)cc1 [Compound 27],C (less than 10% inhibition)
4,CNC(=O)[C@H](O)[C@@H](O)C(=O)Nc1ccc(-c2ccc(C(F)(F)F)cc2)cc1 [Compound 28],C (less than 10% inhibition)
5,CNC(=O)[C@H](O)[C@@H](O)C(=O)N1CCN(c2cccc3ccccc23)CC1 [Compound 29],C (less than 10% inhibition)

# Same assay, conditions: concentration 0.39 (unit not given)
row,Structure (SMILES),LpxC enzyme assay rating (% inhibition at indicated concentrations)
1,CNC(=O)[C@H](O)[C@@H](O)C(=O)Nc1ccc(C#Cc2ccccc2)cc1 [Compound 25],C (less than 10% inhibition)
2,CNC(=O)[C@H](O)[C@@H](O)C(=O)n1ccc2cc(C#Cc3ccccc3)ccc21 [Compound 26],C (less than 10% inhibition)
3,CNC(=O)[C@H](O)[C@@H](O)C(=O)Nc1ccc(-c2ccccc2)cc1 [Compound 27],C (less than 10% inhibition)
4,CNC(=O)[C@H](O)[C@@H](O)C(=O)Nc1ccc(-c2ccc(C(F)(F)F)cc2)cc1 [Compound 28],C (less than 10% inhibition)
5,CNC(=O)[C@H](O)[C@@H](O)C(=O)N1CCN(c2cccc3ccccc23)CC1 [Compound 29],C (less than 10% inhibition)

# Same assay, conditions: concentration 0.78 (unit not given)
row,Structure (SMILES),LpxC enzyme assay rating (% inhibition at indicated concentrations)
1,CNC(=O)[C@H](O)[C@@H](O)C(=O)Nc1ccc(C#Cc2ccccc2)cc1 [Compound 25],C (less than 10% inhibition)
2,CNC(=O)[C@H](O)[C@@H](O)C(=O)n1ccc2cc(C#Cc3ccccc3)ccc21 [Compound 26],C (less than 10% inhibition)
3,CNC(=O)[C@H](O)[C@@H](O)C(=O)Nc1ccc(-c2ccccc2)cc1 [Compound 27],C (less than 10% inhibition)
4,CNC(=O)[C@H](O)[C@@H](O)C(=O)Nc1ccc(-c2ccc(C(F)(F)F)cc2)cc1 [Compound 28],C (less than 10% inhibition)
5,CNC(=O)[C@H](O)[C@@H](O)C(=O)N1CCN(c2cccc3ccccc23)CC1 [Compound 29],C (less than 10% inhibition)

# Same assay, conditions: concentration 1.56 (unit not given)
row,Structure (SMILES),LpxC enzyme assay rating (% inhibition at indicated concentrations)
1,CNC(=O)[C@H](O)[C@@H](O)C(=O)Nc1ccc(C#Cc2ccccc2)cc1 [Compound 25],C (less than 10% inhibition)
2,CNC(=O)[C@H](O)[C@@H](O)C(=O)n1ccc2cc(C#Cc3ccccc3)ccc21 [Compound 26],C (less than 10% inhibition)
3,CNC(=O)[C@H](O)[C@@H](O)C(=O)Nc1ccc(-c2ccccc2)cc1 [Compound 27],C (less than 10% inhibition)
4,CNC(=O)[C@H](O)[C@@H](O)C(=O)Nc1ccc(-c2ccc(C(F)(F)F)cc2)cc1 [Compound 28],C (less than 10% inhibition)
5,CNC(=O)[C@H](O)[C@@H](O)C(=O)N1CCN(c2cccc3ccccc23)CC1 [Compound 29],B (10-30% inhibition)

# Same assay, conditions: concentration 3.13 (unit not given)
row,Structure (SMILES),LpxC enzyme assay rating (% inhibition at indicated concentrations)
1,CNC(=O)[C@H](O)[C@@H](O)C(=O)Nc1ccc(C#Cc2ccccc2)cc1 [Compound 25],C (less than 10% inhibition)
2,CNC(=O)[C@H](O)[C@@H](O)C(=O)n1ccc2cc(C#Cc3ccccc3)ccc21 [Compound 26],C (less than 10% inhibition)
3,CNC(=O)[C@H](O)[C@@H](O)C(=O)Nc1ccc(-c2ccccc2)cc1 [Compound 27],B (10-30% inhibition)
4,CNC(=O)[C@H](O)[C@@H](O)C(=O)Nc1ccc(-c2ccc(C(F)(F)F)cc2)cc1 [Compound 28],C (less than 10% inhibition)
5,CNC(=O)[C@H](O)[C@@H](O)C(=O)N1CCN(c2cccc3ccccc23)CC1 [Compound 29],B (10-30% inhibition)

# Same assay, conditions: concentration 6.25 (unit not given)
row,Structure (SMILES),LpxC enzyme assay rating (% inhibition at indicated concentrations)
1,CNC(=O)[C@H](O)[C@@H](O)C(=O)Nc1ccc(C#Cc2ccccc2)cc1 [Compound 25],C (less than 10% inhibition)
2,CNC(=O)[C@H](O)[C@@H](O)C(=O)n1ccc2cc(C#Cc3ccccc3)ccc21 [Compound 26],C (less than 10% inhibition)
3,CNC(=O)[C@H](O)[C@@H](O)C(=O)Nc1ccc(-c2ccccc2)cc1 [Compound 27],B (10-30% inhibition)
4,CNC(=O)[C@H](O)[C@@H](O)C(=O)Nc1ccc(-c2ccc(C(F)(F)F)cc2)cc1 [Compound 28],C (less than 10% inhibition)
5,CNC(=O)[C@H](O)[C@@H](O)C(=O)N1CCN(c2cccc3ccccc23)CC1 [Compound 29],B (10-30% inhibition)

# Same assay, conditions: concentration 12.50 (unit not given)
row,Structure (SMILES),LpxC enzyme assay rating (% inhibition at indicated concentrations)
1,CNC(=O)[C@H](O)[C@@H](O)C(=O)Nc1ccc(C#Cc2ccccc2)cc1 [Compound 25],B (10-30% inhibition)
2,CNC(=O)[C@H](O)[C@@H](O)C(=O)n1ccc2cc(C#Cc3ccccc3)ccc21 [Compound 26],B (10-30% inhibition)
3,CNC(=O)[C@H](O)[C@@H](O)C(=O)Nc1ccc(-c2ccccc2)cc1 [Compound 27],B (10-30% inhibition)
4,CNC(=O)[C@H](O)[C@@H](O)C(=O)Nc1ccc(-c2ccc(C(F)(F)F)cc2)cc1 [Compound 28],B (10-30% inhibition)
5,CNC(=O)[C@H](O)[C@@H](O)C(=O)N1CCN(c2cccc3ccccc23)CC1 [Compound 29],B (10-30% inhibition)

# Same assay, conditions: concentration 25 (unit not given)
row,Structure (SMILES),LpxC enzyme assay rating (% inhibition at indicated concentrations)
1,CNC(=O)[C@H](O)[C@@H](O)C(=O)Nc1ccc(C#Cc2ccccc2)cc1 [Compound 25],C (less than 10% inhibition)
2,CNC(=O)[C@H](O)[C@@H](O)C(=O)n1ccc2cc(C#Cc3ccccc3)ccc21 [Compound 26],C (less than 10% inhibition)
3,CNC(=O)[C@H](O)[C@@H](O)C(=O)Nc1ccc(-c2ccccc2)cc1 [Compound 27],B (10-30% inhibition)
4,CNC(=O)[C@H](O)[C@@H](O)C(=O)Nc1ccc(-c2ccc(C(F)(F)F)cc2)cc1 [Compound 28],C (less than 10% inhibition)
5,CNC(=O)[C@H](O)[C@@H](O)C(=O)N1CCN(c2cccc3ccccc23)CC1 [Compound 29],B (10-30% inhibition)

# Same assay, conditions: concentration 50 (unit not given)
row,Structure (SMILES),LpxC enzyme assay rating (% inhibition at indicated concentrations)
1,CNC(=O)[C@H](O)[C@@H](O)C(=O)Nc1ccc(C#Cc2ccccc2)cc1 [Compound 25],C (less than 10% inhibition)
2,CNC(=O)[C@H](O)[C@@H](O)C(=O)n1ccc2cc(C#Cc3ccccc3)ccc21 [Compound 26],B (10-30% inhibition)
3,CNC(=O)[C@H](O)[C@@H](O)C(=O)Nc1ccc(-c2ccccc2)cc1 [Compound 27],B (10-30% inhibition)
4,CNC(=O)[C@H](O)[C@@H](O)C(=O)Nc1ccc(-c2ccc(C(F)(F)F)cc2)cc1 [Compound 28],C (less than 10% inhibition)
5,CNC(=O)[C@H](O)[C@@H](O)C(=O)N1CCN(c2cccc3ccccc23)CC1 [Compound 29],B (10-30% inhibition)
